Measurements reported in paper PMC3053071 (Bioorganic & medicinal chemistry letters, 2011).

Assay: Cell toxicity
Type: cell-based

C=C(C)[C@@H]1CC[C@]2(C(=O)O)CC[C@]3(C)[C@H](CC[C@@H]4[C@@]5(C)CC[C@H](OC(=O)CC(C)(C)C(=O)O)C(C)(C)[C@@H]5CC[C@]43C)[C@@H]12 [Bevirimat, 3-O-(3′,3′-dimethylsuccinyl)betulinic acid]
IC50: > 300 µM
